In patent US20240067657A1, “AMIDO-SUBSTITUTED PYRIDYL COMPOUNDS AND METHODS OF USE THEREOF FOR THE TREATMENT OF HERPESVIRUSES” (Merck Sharp & Dohme LLC, priority 2020, published 2024):
Read-outs that look alike come from different tables or passages of the source.

Key:
[1] = system: VZV in MeWo or MRC5 cells; test: Viral qPCR assay VZV (V0/V1, V2/V3), EC50; format: cell-based; details: Human alphaherpesvirus 3, MRC5, MRC5 cells, 10%; read-out: VZV Cell (EC50) MRC5 10%
Experimental: (§1) Viral qPCR Assays (V0/V1)
(§2) MRC5 cells, Vero cells, and MeWo cells were obtained from ATCC and were maintained at 37° C./5% CO2/90% relative humidity in Minimal Essential Medium with 10% fetal bovine serum, […] L-glutamine, 100 units/ml penicillin and 100 ug/ml streptomycin. Assay plates were prepared by dispensing compounds dissolved in DMSO into wells of 384 well collagen-coated plates using an ECHO acoustic dispenser. Each compound was tested in a 10-point, serial 3-fold dilution. Controls included uninfected cells and infected cells treated only with DMSO. Assays were initiated by mixing selected cells, in suspension, with virus, and dispensing 50 μl/well infected cells to pre-plated compounds. Plates were incubated at 37° C./5% CO2/90% relative humidity for ˜72 hrs to permit genomic replication, and infected cells were lysed by the addition of an equal volume of lysis buffer (10 mM Tris-HCl, pH8, 50 mM KCl, 2 mM MgCl2, 0.45% NP-40, 0.45% Tween-20, and 100 μg/ml proteinase K). An aliquot of the lysate was transferred to a 384-well PCR plate and incubated at 56° C. for 1 hour and then at 95° C. for 10 min. Levels of a viral gene and of the cellular control, PPIA (Thermo Fisher Assay ID=Hs04194521_s1), were measured in separate 10 μL qPCR assays using TaqMan® Gene Expression Master Mix (Applied Biosystems), and an 7900HT Fast Real-Time PCR System with 384-Well Block Module. 7-point, serial 10-fold dilutions of a plasmid standard were run on each plate to generate a standard curve, and genome copies numbers were calculated by plotting experimental Ct onto linear regression of the standard curve. Viral genome copy numbers were normalized by cellular control copy number, and compound effects were normalized to the window defined by the controls. Calculated % effects were fit using a 4-parameter algorithm, and EC50 was reported.
(§3) Viral qPCR Assays (V2/V3)
as §2, with “gene” for “gene and of the cellular control, PPIA (Thermo Fisher Assay ID=Hs04194521_s1),”, “in” for “in separate”, “Compound effects on viral” for “Viral”, “number” for “numbers were normalized by cellular control copy number, and compound effects”, “reported. • HCMV: Strain AD169 Street was assayed in MRC-5 cells and was used at 0.05-0.1 pfu/cell. The assays were performed in either growth media or in the same media with 50% fetal bovine serum. Primer-probe set was Thermo Fisher Assay ID=AIFATFK. • VZV: Strain Street was maintained as an infected cell stock in MRC-5 cells. It was assayed in MeWo or MRC5 cells and was used at 0.04-0.1 pfu/cell. […]” for “reported.”

[2] = biological target: T1, Human cytomegalovirus DNA polymerase (Human cytomegalovirus, UniProt P08546); test: HCMV polymerase assay (AlphaLISA, IC50); format: biochemical; details: polymerase assay of Example 190
T1 construct: made in house; host or cells: SF21 insect cells (baculovirus vector)
T1 sequence (P08546 whole entry): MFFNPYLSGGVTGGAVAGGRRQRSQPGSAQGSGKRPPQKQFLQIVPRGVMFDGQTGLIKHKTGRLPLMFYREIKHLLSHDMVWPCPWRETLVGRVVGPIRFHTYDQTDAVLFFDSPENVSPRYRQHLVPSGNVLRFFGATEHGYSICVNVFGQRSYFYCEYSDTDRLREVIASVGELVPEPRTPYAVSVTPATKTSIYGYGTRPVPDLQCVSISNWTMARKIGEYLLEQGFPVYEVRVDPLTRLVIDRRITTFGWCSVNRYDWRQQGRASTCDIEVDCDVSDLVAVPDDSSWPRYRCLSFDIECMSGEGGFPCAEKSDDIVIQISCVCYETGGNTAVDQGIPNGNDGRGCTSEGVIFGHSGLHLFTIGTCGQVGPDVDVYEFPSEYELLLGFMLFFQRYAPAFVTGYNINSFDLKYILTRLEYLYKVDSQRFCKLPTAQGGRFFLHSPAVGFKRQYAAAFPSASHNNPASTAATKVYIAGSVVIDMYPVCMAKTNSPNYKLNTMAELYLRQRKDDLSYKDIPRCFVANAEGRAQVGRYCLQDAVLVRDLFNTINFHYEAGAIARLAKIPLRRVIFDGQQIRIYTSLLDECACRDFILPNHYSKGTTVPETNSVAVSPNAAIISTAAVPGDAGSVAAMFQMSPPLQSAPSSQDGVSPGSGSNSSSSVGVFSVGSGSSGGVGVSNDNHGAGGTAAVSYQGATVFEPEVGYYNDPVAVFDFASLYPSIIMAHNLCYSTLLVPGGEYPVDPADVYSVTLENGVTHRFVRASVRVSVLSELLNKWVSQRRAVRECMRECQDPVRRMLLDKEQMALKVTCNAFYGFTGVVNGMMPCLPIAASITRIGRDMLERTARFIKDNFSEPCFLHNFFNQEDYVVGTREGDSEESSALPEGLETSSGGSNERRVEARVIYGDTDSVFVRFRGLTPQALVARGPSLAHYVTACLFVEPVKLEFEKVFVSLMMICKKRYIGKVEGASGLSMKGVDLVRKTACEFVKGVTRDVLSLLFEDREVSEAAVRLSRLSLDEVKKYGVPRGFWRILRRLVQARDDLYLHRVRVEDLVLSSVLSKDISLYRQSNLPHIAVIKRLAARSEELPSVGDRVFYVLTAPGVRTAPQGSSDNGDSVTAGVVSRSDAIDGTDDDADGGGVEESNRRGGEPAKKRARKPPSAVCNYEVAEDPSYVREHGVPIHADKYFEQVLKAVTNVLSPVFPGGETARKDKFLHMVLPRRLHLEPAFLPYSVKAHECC
Experimental: Human cytomegalovirus and varicella zoster virus DNA polymerases were expressed via baculovirus vector in SF21 cells and purified. Heterodimeric nucleic acid substrate used in the herpesvirus polymerase reactions was generated by annealing a 59-mer template to a 17-mer digoxigenin-labeled primer. Polymerase (HCMV final concentration of 0.2 nM; VZV final concentration of 0.4 nM) was combined with an inhibitor compound or DMSO in assay buffer (10 mM HEPES, pH 7.5, 25 mM KCl, 25 mM NaCl, 5 mM MgCl2, 5% glycerol, 0.67 mg/ml bovine serum albuminutes, and 1 mM tris(2-carboxyethyl)phosphine), and this mixture was pre-incubated for 30 minutes at room temperature in 384-well microtiter plates. The polymerization reaction was initiated by the addition of template/primer substrate (final concentration: 1.6 nM), and dNTPs (final concentration: 24 nM dCTP, 24 nMdGTP, 16 nM dATP, 16 nM dTTP, and 0.8 nM biotin-dUTP). After 60 minutes incubation at 37° C., reactions were terminated with quench buffer (25 mM HEPES pH 7.5, 100 mM NaCl, 0.25% Tween-20, 12 mM EDTA, and 1 mg/ml bovine serum albumin). Incorporation of biotinylated UTP was detected with 2.5-5 ug/ml anti-DIG AlphaLISA acceptor beads and 5-10 ug/ml streptavidin AlphaLISA donor beads (Perkin Elmer). Compound effects were normalized to the window defined by the controls (DMSO only and pre-quenched wells), and were fit using a 4-parameter algorithm to report an IC50.

[3] = system: HSV-1 Strain F in Vero or MRC5 cells; test: Viral qPCR assay HSV-1 (V0/V1, V2/V3), EC50; format: cell-based; details: Human alphaherpesvirus 1, MRC5, MRC5 cells, 10%; read-out: HSV1 Cell (EC50) MRC5 10%
Experimental: as §1, §2, §3
as §2, with “gene” for “gene and of the cellular control, PPIA (Thermo Fisher Assay ID=Hs04194521_s1),”, “in” for “in separate”, “Compound effects on viral” for “Viral”, “number” for “numbers were normalized by cellular control copy number, and compound effects”, “reported. • HCMV: Strain AD169 Street was assayed in MRC-5 cells and was used at 0.05-0.1 pfu/cell. The assays were performed in either growth media or in the same media with 50% fetal bovine serum. Primer-probe set was Thermo Fisher Assay ID=AIFATFK. • VZV: Strain Street was maintained as an infected cell stock in MRC-5 cells. It was assayed in MeWo or MRC5 cells and was used at 0.04-0.1 pfu/cell. […]” for “reported.”

[4] = system: HCMV Strain AD169 in MRC-5 cells; test: Viral qPCR assay HCMV (V0/V1, V2/V3), EC50; format: cell-based
Experimental: as §1, §2, §3
as §2, with “gene” for “gene and of the cellular control, PPIA (Thermo Fisher Assay ID=Hs04194521_s1),”, “in” for “in separate”, “Compound effects on viral” for “Viral”, “number” for “numbers were normalized by cellular control copy number, and compound effects”, “reported. • HCMV: Strain AD169 Street was assayed in MRC-5 cells and was used at 0.05-0.1 pfu/cell. The assays were performed in either growth media or in the same media with 50% fetal bovine serum. Primer-probe set was Thermo Fisher Assay ID=AIFATFK. • VZV: Strain Street was maintained as an infected cell stock in MRC-5 cells. It was assayed in MeWo or MRC5 cells and was used at 0.04-0.1 pfu/cell. […]” for “reported.”

[5] = Human betaherpesvirus 5, AD169, MRC5, viral qPCR assay of Example 191, read-out: HCMV Cell (EC50)

| Compound | IC50 [2] [nM] | EC50 [1] [nM] | EC50 [3] [nM] | EC50 [4, 5] [nM] | EC50 ([4]; Human betaherpesvirus 5, AD169, MRC5, read-out: HCMV Cell (EC50)) [nM] |
| --- | --- | --- | --- | --- | --- |
| CC(=O)N1CCC(Oc2cc(C(=O)NCc3ccc(Cl)cc3)ncc2-c2cnn(C)n2)CC1 [Compound 7] | 122 | 707 | 530 | 552 |  |
| CC(=O)N1CCC(Oc2cc(C(=O)NCc3ccc(Cl)cc3)ncc2-c2cnsc2)CC1 [Compound 47] | 136 |  |  | 1160 |  |
| CC(=O)N1CCC(Oc2cc(C(=O)NCc3ccc(Cl)cc3)ncc2-c2cn(C)cn2)CC1 [Compound 50] | 37.3 | 243 | 181 | 461 |  |
| CC(=O)N1CCC(Oc2cc(C(=O)NCc3ccc(Cl)cc3)ncc2-c2cncs2)CC1 [Compound 51] | 48.5 | 170 | 164 | 369 |  |
| CC(=O)N1CCC(Oc2cc(C(=O)NCc3ccc(Cl)cc3)ncc2-c2cnoc2)CC1 [Compound 53] | 56.5 |  |  | 1840 |  |
| CC(=O)N1CCC(Oc2cc(C(=O)NCc3ccc(Cl)cc3)ncc2-c2cn(C)c(CCO)n2)CC1 [Compound 55] | 65.4 |  |  | 781 |  |
| CC(=O)N1CCC(Oc2cc(C(=O)NCc3ccc(Cl)cc3)ncc2-c2ccn(CS(C)(=O)=O)n2)CC1 [Compound 56] | 68.8 | 1430 | 847 | 687 |  |
| CC(=O)N1CCC(Oc2cc(C(=O)NCc3ccc(Cl)cc3)ncc2-c2cnsn2)CC1 [Compound 58] | 155 |  |  | 1810 |  |
| O=C(NCc1cc(F)c(Cl)c(F)c1)c1cc(O[C@H]2CCN3C(=O)OC[C@@H]3C2)c(-c2cnn(C(F)F)c2)cn1 [Compound 80] | 8.76 | 401 | 247 | 248 |  |
| O=C(NCc1ccc(Cl)cc1Cl)c1cc(O[C@H]2CCN3C(=O)OC[C@@H]3C2)c(-c2cnn(C(F)F)c2)cn1 [Compound 85] | 65.3 | 4710 | 1640 | 888 |  |
| O=C(NCc1ccc(Cl)c(F)c1F)c1cc(O[C@H]2CCN3C(=O)OC[C@@H]3C2)c(-c2cnn(C(F)F)c2)cn1 [Compound 92] | 10.3 | 339 | 200 | 227 |  |
| CC(=O)N1CCC(Oc2cc(C(=O)NCc3ccc(Cl)cc3)ncc2-c2cnn(C(F)F)c2)CC12CC2 (stereo not drawn) [Compound 160] | 135 |  |  | 1400 |  |
| C[C@@H]1CN(C)CCN1c1cc(C(=O)NCc2ccc(Cl)cc2)nc(-c2cnn(CCO)c2)c1 [Compound 177] | 601 |  |  |  | 1410 |
| COCCOC(=O)N(Cc1ccc(Cl)cc1)C(=O)c1cc(O[C@H]2CCN3C(=O)OC[C@@H]3C2)c(-c2cnn(C(F)F)c2)cn1 [Compound 179] | 107 |  |  | 1390 |  |

The next lines start with results.

| IC50 [2] [nM] | Compound | EC50 [1] [nM] | EC50 [3] [nM] | EC50 [4, 5] [nM] | EC50 ([4]; Human betaherpesvirus 5, AD169, MRC5, read-out: HCMV Cell (EC50)) [nM] |
| --- | --- | --- | --- | --- | --- |
| 1.16 | Cc1cc(-c2cnc(C(=O)NCc3ccc(Cl)cc3)cc2O[C@H]2CCN3C(=O)OC[C@@H]3C2)sn1 [Compound 23] | 59.6 | 25.7 | 102 |  |
| 151 | CC(=O)N1CCC(Oc2cc(C(=O)NCc3ccc(Cl)cc3)ncc2-c2cn(C)nn2)CC1 [Compound 59] |  |  | 976 |  |
| 197 | CC(=O)N1CCC(Oc2cc(C(=O)NCc3ccc(Cl)cc3)ncc2-c2ccsn2)CC1 [Compound 60] |  |  | 1490 |  |
| 12 | O=C(NCc1ccc(Br)cc1)c1cc(O[C@H]2CCN3C(=O)OC[C@@H]3C2)c(-c2cnn(C(F)F)c2)cn1 [Compound 83] | 147 | 274 | 549 |  |
| 184 | C#Cc1ccc(CNC(=O)c2cc(O[C@H]3CCN4C(=O)OC[C@@H]4C3)c(-c3cnn(C(F)F)c3)cn2)cc1 [Compound 88] | 1180 | 785 | 616 |  |
| 187 | O=C(NCc1ccc(I)cc1)c1cc(O[C@H]2CCN3C(=O)OC[C@@H]3C2)c(-c2cnn(C(F)F)c2)cn1 [Compound 89] |  |  | 1520 |  |
| 407 | Cc1cnc(C(=O)NCc2ccc(Cl)cc2)cc1OC1CCC(=O)N(C)CC1 (stereo not drawn) [Compound 99] |  |  | 4010 |  |
| 273 | O=C(NCc1ccc(C(F)(F)F)cc1)c1cc(O[C@H]2CCN3C(=O)OC[C@@H]3C2)c(-c2cnn(C(F)F)c2)cn1 [Compound 104] |  |  | 5980 |  |
| 84.8 | O=C(NCc1ccc(Cl)cc1)c1cc(O[C@H]2CCN3C(=O)OC[C@@H]3C2)c(N2CCOCC2)cn1 [Compound 116] | 3600 | 2420 | 791 |  |
| 38.8 | O=C(NCc1ccc(Cl)cc1)c1cc(O[C@H]2CCN3C(=O)OC[C@@H]3C2)c(N2CC3(CC(O)C3)C2)cn1 [Compound 118] |  |  | 579 |  |
| 65.2 | CC(C)(N)C1CCN(c2cnc(C(=O)NCc3ccc(Cl)cc3)cc2O[C@H]2CCN3C(=O)OC[C@@H]3C2)C1 (stereo partly drawn) [Compound 119] |  |  | 747 |  |
| 36.5 | CC(C)(O)C1CN(c2cnc(C(=O)NCc3ccc(Cl)cc3)cc2O[C@H]2CCN3C(=O)OC[C@@H]3C2)C1 [Compound 121] |  |  | 257 |  |
| 160 | CC(C)(O)C12CC(C1)N(c1cnc(C(=O)NCc3ccc(Cl)cc3)cc1O[C@H]1CCN3C(=O)OC[C@@H]3C1)C2 [Compound 123] |  |  | 1310 |  |
| 172 | C[C@@H]1CN(c2cnc(C(=O)NCc3ccc(Cl)cc3)cc2O[C@H]2CCN3C(=O)OC[C@@H]3C2)C[C@H](C)[C@]1(C)O [Compound 124] | 6050 | 2850 | 1270 |  |
| 804 | CS(=O)(=O)c1cnc(C(=O)NCc2ccc(Cl)cc2)cc1O[C@H]1CCN2C(=O)OC[C@@H]2C1 [Compound 147] |  |  | 12700 |  |
| 201 | CN1CCC(C(=O)OCN(Cc2ccc(Cl)cc2)C(=O)c2cc(O[C@H]3CCN4C(=O)OC[C@@H]4C3)c(-c3cnn(C(F)F)c3)cn2)CC1 [Compound 183] |  |  | 150 |  |
